# According to patent US8288549B2, “Glycine B antagonist” (Merz Pharma GmbH & Co. KGaA, priority 2008, dated 2012):
# Legend:
# [1] = biological target: T1, glycine binding pocket of the NMDA receptor (Rattus norvegicus, UniProt P35439); assay: [3H]-MDL-105,519 displacement studies on rat cortical membranes; conditions: displacement of 2 nM [3H]-MDL-105,519, rat cortical membranes, 4° C., 1 h; read-out: NMDA-MDL 105519-r-CTX - IC50
# T1 construct: The cortex is dissected out and processed as described by Parsons, et al; from tissue; host or cells: rat cerebral cortex membranes (male Sprague-Dawley)
# Procedure: [^3]MDL-105,519 Displacement Studies
# For the evaluation of the binding affinity of the test compounds on the glycine binding pocket of the NMDA receptor, [^3H]-MDL-105,519 (GE Healthcare, Freiburg, Germany) displacement studies are performed using a 96-well plate robotic platform. MDL-105,519 (Baron et al., J Pharmacol Exp Ther 1996, 279(1), 62-68; Baron et al., European Journal of Pharmacology, 1997, 323(2-3), 181-192; Hoffner & Wanner, Neuroscience Letters, 1997, 226(2), 79-82) is a selective, high affinity antagonist at the NMDA receptor glycine site.
# Tissue preparation is performed according to Foster & Wong (Br J Pharmacol, 1987, 91, 403-409) with some modifications. Anaesthetised male Sprague-Dawley rats (200-250 g, Janvier, Le Genest-Isle, France) are decapitated and their brains removed rapidly. The cortex is dissected out and processed as described by Parsons, et al. (J Pharmacol Exp Ther, 1997, 283(3), 1264-1275). For isolation of the cell membranes, the cortices are homogenized in 20 volumes of ice-cold 0.32 M sucrose (Sigma-Aldrich, Taufkirchen, Germany) using a glass-Teflon homogenizer. The homogenate is centrifuged at 1000×g for 10 minutes, the pellet is discarded and the supernatant centrifuged at 20,000×g for 20 minutes. The resulting pellet is re-suspended in 20 volumes of distilled water and centrifuged for 20 minutes at 8000×g. The supernatant and the buffy coat are then centrifuged three times (48,000×g for 20 minutes) in the presence of 50 mM Tris-HCl, pH 8.0 (assay buffer). All centrifugation steps are carried out at 4° C. After resuspension in 5 volumes of 50 mM Tris-HCl, pH 7.5, the membrane suspension is frozen rapidly at −80° C. On the day of assay, the membranes are thawed and washed four times by resuspension in 50 mM Tris-HCl, pH 7.5, and centrifugation at 48,000×g for 20 minutes. The final pellet is suspended in assay buffer. The amount of protein in the final membrane preparation is determined according to the method of Lowry, et al. (J. Biological Chemistry, 1951, 193, 256-275) with some modifications (Hartree, Analytical Biochemistry, 1972, 48, 422-427). The final protein concentration used for our studies is 400 μg/ml.
# A robotic system designed for binding assays (Tecan Deutschland GmbH, Crailsheim, Germany) is loaded with the membrane solution, solutions for bound control (buffer/DMSO 20%), unlabeled glycine (1 mM) for evaluation of non-specific binding, all compounds to be tested (at 20-fold concentrations), radioligand and respective 96-well plates.
# Before performing displacement studies, saturation experiments are performed to determine the equilibrium dissociation constant (Kd) of [^3H]-MDL-105,519, which is a parameter for the affinity of the radioligand to the binding site. The protein/receptor concentration is held constant whereas the amount of specific bound radioligand is determined using increasing concentrations of ligand.
# On the basis of the saturation experiments, a final [^3H]-MDL-105,519 concentration of 2 nM is selected. Firstly, the assay plates are loaded with membrane solution and are shaken at 4° C. The mother plates are then prepared by pipetting the compounds (n=4) into assay buffer/20% DMSO to obtain the desired final concentrations. After transferring radioligand into the assay plates, the compounds are added (including the bound and the non-specific binding control). The final DMSO concentration is 1%. The assay plates are incubated and shaken at 4° C. for 1 h, before the mixture is exhausted as rapidly as possible via a vacuum manifold using the Multiscreen HTS glass fibre (type B) filter plates (Millipore, Schwalbach, Germany) under a constant vacuum of 450 mbar. The membranes are washed four times with cold assay buffer (100 μL). […]
# [2] = biological target: T2, NMDA receptor glycine B site (Rattus norvegicus, UniProt P35439); assay: Whole cell patch-clamp recordings in cultured rat hippocampal neurons (NMDA/D-Serine evoked currents); type: cell-based; conditions: NMDA (200 μM) and D-Serine (1 μM), holding potential −70 mV, read-out: NMDA-PC-r-HIC-NAM - IC50
# T2 construct: Hippocampi are then isolated from the brains of at least 8 embryos after decapitation; endogenous in cells; host or cells: primary cultured hippocampal neurons from E20 Sprague-Dawley rat embryos, 11-15 DIV
# Procedure: Antagonistic potencies of the test compounds are functionally evaluated using electrophysiological whole cell patch-clamp recordings and/or fluorometric intracellular Ca^2+-imaging (FLIPR) screens.
# Cell preparation is performed as described by Parsons, et al. (Neuropharmacology, 1998, 37(6), 719-727). The female Sprague-Dawley rat is anaesthetised by placing in a saturated CO2-euthanasia chamber under further quiet CO2-influx. Under these conditions the rat loses consciousness after a few seconds and is then sacrificed by cervical dislocation. After opening the abdominal cavity, embryos (E20) are removed and stored in ice cold Ca^2+- and Mg^2+-free Hank's Buffered Salt Solution (pH 7.3), containing 4 g/l glucose (HBSS-CMF). Hippocampi are then isolated from the brains of at least 8 embryos after decapitation, transferred into ice cold HBSS-CMF and washed 3 to 4 times.
# Hippocampi are pre-incubated for 8 min with a 0.66% trypsin (Sigma-Aldrich) and 0.1% (20 U/ml) DNAase solution (Sigma-Aldrich) in Ca^2+-free Phosphate Buffered Saline (PBS-CF) and washed 3 times with HBSS-CMF. Cells are then mechanically dissociated by trituration in a PBS-CF solution containing 0.05% (10 U/ml) DNAase and 0.3% of the trypsin inhibitor ovomucoid (all from Sigma-Aldrich). The cells are then centrifuged at 180×g for 10 minutes, and the cell pellet re-suspended in basal Minimum essential medium (MEM, Invitrogen, Karlsruhe, Germany), again carefully triturated to ensure maximal dissociation and finally plated in the flexiPERM inserts (Thermo Fisher Scientific, Langenselbold, Germany) at a density of 15×10^3 cells/cm^2 (0.5 ml/insert) onto poly-DL-ornithine (Sigma) and mouse laminin (Invitrogen) pre-coated plastic petri dishes. After 1 hour the cells become attached to the bottom of the dish and the inserts may be removed. The cells are then nourished with 2 ml MEM supplemented with 5% foetal calf serum (FCS) and 5% horse serum and incubated at 37° C. with 95% air and 5% CO2 at 95% humidity. After 4 days in vitro (DIV) further glial mitosis is inhibited by adding 10 μl of AraC (5 μM endconcentration). The medium is completely exchanged after an additional 2 DIV and again, but only partly (50%), after 8 DIV. The cells are used for electrophysiological recordings after 11-15 DIV.
# Cells are visualised using an inverted microscope and selected for patching based upon their position and morphology. Voltage clamp recordings are made in the whole cell configuration of the patch clamp technique at a holding potential of −70 mV with the aid of an EPC-10 amplifier in combination with pipette manipulator. Patch clamp pipettes are pulled from borosilicate glass using a horizontal puller (P-97 Puller, Sutter Instruments, USA) and, when filled with intracellular solution, have resistances of 1-4 MΩ.
# Solutions are delivered via a home-made gravity driven very fast perfusion system (<10 ms) including valves to switch flow on and off in combination with a stepper motor-driven double-barreled theta glass application pipette in order to expose cells to either agonist-free or agonist-containing solutions in presence or absence of antagonist.
# The intracellular solution used consists of: 120 mM CsCl, 10 mM EGTA, 1 mM MgCl2, 200 μM CaCl2, 10 mM glucose and 22 mM tetraethyl ammonium chloride (TEA-CL). The corresponding extracellular bath solution contains: 140 mM NaCl, 3 mM KCl, 10 mM glucose, 10 mM HEPES, 1.5 mM CaCl2 and 4.5 mM sucrose (all from Sigma-Aldrich) pH 7.3, and is supplemented with 0.3 μM tetrodotoxin (TTX, Tocris, Bristol, U.K.) to block voltage-activated sodium channels and 0.25 μM bicuculline (Sigma-Aldrich) to block GABAA receptors. […]
IC50 [1],IC50 [2],melting point,SMILES
450 nM,,,"O=C(O)c1cc2cc(Cl)ccc2nc1N[C@@H](Cc1ccc(Oc2nc3ccc(Cl)cc3cc2C(=O)O)cc1)C(=O)O [Example 8, 2-{(S)-1-Carboxy-2-[4-(3-carboxy-6-chloroquinolin-2-yloxy)-phenyl]-ethylamino}-6-chloro-quinoline-3-carboxylic acid]"
,680 nM,> 250 °C,"Nc1cc(C[C@H](Nc2nc3ccc(Cl)cc3cc2C(=O)O)C(=O)O)ccc1Oc1nc2ccc(Cl)cc2cc1C(=O)O [Example 48, 2-{(S)-2-[3-Amino-4-(3-carboxy-6-chloro-quinolin-2-yloxy)-phenyl]-1-carboxy-ethylamino}-6-chloro-quinoline-3-carboxylic acid]"
2700 nM,,,"O=C(O)c1cc2cc(Cl)ccc2nc1N[C@@H](Cc1ccc(OCc2ccccc2)cc1)C(=O)O [Example 22, 2-[(S)-2-(4-Benzyloxy-phenyl)-1-carboxy-ethylamino]-6-chloro-quinoline-3-carboxylic acid]"
,640 nM,> 250 °C (dec.),"O=C(O)c1cc2cc(Cl)ccc2nc1Nc1ccc(CC(Nc2nc3ccc(Cl)cc3cc2C(=O)O)C(=O)O)cc1 (stereo not shown) [Example 59, 2-{1-Carboxy-2-[4-(3-carboxy-6-chloro-quinolin-2-ylamino)-phenyl]-ethylamino}-6-chloro-quinoline-3-carboxylic acid]"
1440 nM,,,"O=C(O)c1cc2cc(Cl)ccc2nc1N[C@@H](Cc1ccc(Oc2ccnc3cc(Cl)ccc23)cc1)C(=O)O [Example 142, 2-{(S)-1-Carboxy-2-[4-(7-chloro-quinolin-4-yloxy)-phenyl]-ethylamino}-6-chloro-quinoline-3-carboxylic acid]"
3300 nM,,,"O=C(O)c1cc2cc(Cl)ccc2nc1N[C@@H](CC1CCCCC1)C(=O)O [Example 35, 2-((S)-1-Carboxy-2-cyclohexyl-ethylamino)-6-chloro-quinoline-3-carboxylic acid]"
5800 nM,,,"O=C(O)c1cc2cc(Cl)c(Cl)cc2nc1N[C@@H](Cc1ccccc1)C(=O)O [Example 32, 2-((S)-1-Carboxy-2-phenyl-ethylamino)-6,7-dichloro-quinoline-3-carboxylic acid]"
290 nM,,,"O=C(O)c1cc2cc(Cl)ccc2nc1N[C@@H](Cc1ccc(Oc2ccc3cc(Br)cnc3n2)cc1)C(=O)O [Example 147, 2-{(S)-2-[4-(6-Bromo-[1,8]naphthyridin-2-yloxy)-phenyl]-1-carboxy-ethylamino}-6-chloro-quinoline-3-carboxylic acid]"
840 nM,,,"O=C(O)c1cc2cc(Cl)ccc2nc1N[C@@H](Cc1ccc(Oc2ccncc2Br)cc1)C(=O)O [Example 144, 2-{(S)-2-[4-(3-Bromo-pyridin-4-yloxy)-phenyl]-1-carboxy-ethylamino}-6-chloro-quinoline-3-carboxylic acid]"
1030 nM,,,"O=C(O)c1cc2cc(Cl)cc(Cl)c2nc1N[C@@H](Cc1c[nH]c2ccccc12)C(=O)O [Example 155, 2-[(S)-1-Carboxy-2-(1H-indol-3-yl)-ethylamino]-6,8-dichloro-quinoline-3-carboxylic acid]"
,420 nM,145 to 150 °C,"O=C(O)c1cc2cc(Cl)ccc2nc1N[C@@H](Cc1ccc(Oc2ccc(Br)cn2)cc1)C(=O)O [Example 101, 2-{(S)-2-[4-(5-Bromo-pyridin-2-yloxy)-phenyl]-1-carboxy-ethylamino}-6-chloro-quinoline-3-carboxylic acid]"
,250 nM,165 to 170 °C (dec.),"O=C(O)c1cc2cc(Cl)ccc2nc1NC(C(=O)O)C(C(=O)O)c1ccccc1 (stereo not shown) [Example 79, 2-(3-Carboxy-6-chloro-quinolin-2-ylamino)-3-phenyl-succinic acid]"
,468 nM,140 to 141 °C,"O=C(O)c1cc2cc(Br)ccc2nc1N[C@H](Cc1ccccc1)C(=O)O [Example 47, 6-Bromo-2-((R)-1-carboxy-2-phenyl-ethylamino)-quinoline-3-carboxylic acid]"
,720 nM,,"O=C(O)C[C@H](Nc1nc2ccc(Cl)cc2cc1C(=O)O)C(=O)O [Example 114, (S)-2-(3-Carboxy-6-chloro-quinolin-2-ylamino)-succinic acid ammonia hydrate]"
,560 nM,,"O=C(O)c1cc2cc(Cl)ccc2nc1NC(Cc1ccc(Nc2ccc3ccccc3n2)cc1)C(=O)O (stereo not shown) [Example 108, 2-{1-Carboxy-2-[4-(quinolin-2-ylamino)-phenyl]-ethylamino}-6-chloro-quinoline-3-carboxylic acid]"
,754 nM,144 to 148 °C (dec.),"N.N.O=C(O)c1cc2cc(Cl)ccc2nc1NC(Cc1ccccc1F)C(=O)O (stereo not shown) [Example 40, 2-[1-Carboxy-2-(2-fluoro-phenyl)-ethylamino]-6-chloro-quinoline-3-carboxylic acid ammonium salt]"
